Eleven compounds from ChEMBL document CHEMBL1201862, “PubChem BioAssay data set” (2004) can be followed below.

One series addresses Cytochrome P450 2C9 (Homo sapiens, UniProt P11712).
The target in series [1] is T1, Cytochrome P450 2D6 (Homo sapiens, UniProt P10635).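 Also: CYP2D6 member of a cytochrome P450 panel assay.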
The target in another series is Cytochrome P450 3A4 (Homo sapiens, UniProt P08684).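 Also: CYP3A4 tested as one member of a cytochrome P450 panel screen.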
Another series addresses Cytochrome P450 2C19 (Homo sapiens, UniProt P33261). In words: Cytochrome panel assay with activity outcomes. Panel member name: p450-cyp2c19 Compounds with AC50 equal or less than 10 uM are considered active. It is filed as functional.
The next series deals with Beta-galactosidase (Escherichia coli, UniProt Q8VNN2). Briefly: PubChem AID 485352. Format: functional.
The target in series [2] is T2, Type-1 angiotensin II receptor (Homo sapiens, UniProt P30556).
T2 sequence (P30556 whole entry): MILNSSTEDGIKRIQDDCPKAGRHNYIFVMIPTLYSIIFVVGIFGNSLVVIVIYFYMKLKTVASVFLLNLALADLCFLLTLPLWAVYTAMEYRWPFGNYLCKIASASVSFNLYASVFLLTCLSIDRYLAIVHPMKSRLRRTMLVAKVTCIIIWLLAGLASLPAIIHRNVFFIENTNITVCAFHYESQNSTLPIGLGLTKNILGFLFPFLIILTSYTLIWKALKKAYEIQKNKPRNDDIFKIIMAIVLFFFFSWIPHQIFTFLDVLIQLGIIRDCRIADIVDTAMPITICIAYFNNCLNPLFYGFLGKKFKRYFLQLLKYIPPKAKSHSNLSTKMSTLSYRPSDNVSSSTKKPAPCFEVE
Briefly: antagonism of angiotensin II type 1 receptor – cell-based, uHTS hits, selectivity assay for APJ receptor antagonist project, dose response (AID 463214).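 Also: antagonist potency against angiotensin II stimulated AT1 response.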 It is filed as functional.

Another series concerns the target Mu-type opioid receptor (Homo sapiens, UniProt P35372). In words: Counterscreen for agonists of heterodimerization of the mu 1 (OPRM1) and delta 1 (OPRD1) opioid receptors: Luminescence-based cell-based high throughput dose response assay to identify agonists of OPRM1 homodimerization. Format: functional.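 Also: U2OS cells expressing OPRM1 and beta-arrestin as split beta-galactosidase partners.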
Series [3] deals with 5-hydroxytryptamine receptor 5A (Homo sapiens, UniProt P47898). In words: Counterscreen for agonists of OPRM1-OPRD1 heterodimerization: luminescence-based cell-based high throughput dose response assay to identify agonists of 5-hydroxytryptamine (serotonin) 5A receptor (HTR5A). [Related pubchem assays (depositor defined):AID504326, AID504355, AID504692, AID504904, AID504905]. Format: functional. In general terms: Counterscreens check selectivity or assay interference.

For series [4], the target named is Delta-type opioid receptor (Homo sapiens, UniProt P41143). Briefly: Counterscreen for agonists of heterodimerization of the mu 1 (OPRM1) and delta 1 (OPRD1) opioid receptors: Luminescence-based cell-based high throughput dose response assay to identify agonists of OPRD1 homodimerization. [Related pubchem assays (depositor defined):AID504326, AID504355, AID504692, AID504904, AID504905]. Format: functional.

Series [5] addresses T3, Heat shock factor protein 1 (Mus musculus, UniProt P38532).
T3 sequence (P38532 whole entry): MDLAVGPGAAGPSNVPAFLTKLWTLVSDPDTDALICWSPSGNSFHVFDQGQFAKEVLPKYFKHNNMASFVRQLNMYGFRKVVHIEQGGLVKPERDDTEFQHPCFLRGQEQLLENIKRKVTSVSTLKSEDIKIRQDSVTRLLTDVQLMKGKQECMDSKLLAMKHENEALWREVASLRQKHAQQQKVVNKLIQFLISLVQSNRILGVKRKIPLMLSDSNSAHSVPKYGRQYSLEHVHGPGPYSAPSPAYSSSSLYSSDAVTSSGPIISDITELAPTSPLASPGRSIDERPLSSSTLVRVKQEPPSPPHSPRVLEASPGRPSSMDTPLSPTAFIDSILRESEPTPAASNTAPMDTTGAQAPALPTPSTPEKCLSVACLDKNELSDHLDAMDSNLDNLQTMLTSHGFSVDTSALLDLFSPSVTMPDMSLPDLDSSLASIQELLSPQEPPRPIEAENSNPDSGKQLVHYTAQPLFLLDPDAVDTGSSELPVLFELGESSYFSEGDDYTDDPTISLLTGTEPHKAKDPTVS
In words: enhancement of HSF1-driven luciferase signal – cell-based, NIH3T3, luminescence, dose retest, confirmation (AID 435004).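 Also: stress induced by proteasome inhibitor MG132 added 30 min after compound; luciferase reporter driven by HSF1 response element in NIH3T3 cells; actives raise luminescence as potentiators of the MG132 stress response.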 It is filed as functional.

The target of another series is T4, Bcl-2-related protein A1 (Mus musculus, UniProt Q07440).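 Also: confirmatory dose–response counterscreen on Bfl-1, used to check hits from a UBC13 polyubiquitin inhibitor campaign.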
T4 sequence (Q07440 whole entry): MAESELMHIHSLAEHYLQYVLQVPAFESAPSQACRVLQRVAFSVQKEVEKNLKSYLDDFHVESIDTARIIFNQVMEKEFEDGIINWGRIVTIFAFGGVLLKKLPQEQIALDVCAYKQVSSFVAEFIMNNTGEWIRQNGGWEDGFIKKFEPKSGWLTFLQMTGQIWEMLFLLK
It is filed as functional.

Series [6] is described as follows: NIH3T3 cell viability loss – ATP luminescence, mouse fibroblasts, counter-screen, dose response (AID 2010).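 Also: cells exposed to compound for about 90 hours before reading.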 It is filed as functional, cell-based.
The target in series [7] is T5, Ubiquitin-conjugating enzyme E2 N (Homo sapiens, UniProt P61088).
T5 sequence (P61088 whole entry): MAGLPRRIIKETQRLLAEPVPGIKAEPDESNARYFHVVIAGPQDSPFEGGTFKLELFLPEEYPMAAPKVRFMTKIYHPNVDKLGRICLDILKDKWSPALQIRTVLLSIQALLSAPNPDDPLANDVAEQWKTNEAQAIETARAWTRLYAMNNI
Format: functional.

Series [8] concerns the target T6, DNA repair and recombination protein RAD54-like (Homo sapiens, UniProt Q92698).
T6 sequence (Q92698 whole entry): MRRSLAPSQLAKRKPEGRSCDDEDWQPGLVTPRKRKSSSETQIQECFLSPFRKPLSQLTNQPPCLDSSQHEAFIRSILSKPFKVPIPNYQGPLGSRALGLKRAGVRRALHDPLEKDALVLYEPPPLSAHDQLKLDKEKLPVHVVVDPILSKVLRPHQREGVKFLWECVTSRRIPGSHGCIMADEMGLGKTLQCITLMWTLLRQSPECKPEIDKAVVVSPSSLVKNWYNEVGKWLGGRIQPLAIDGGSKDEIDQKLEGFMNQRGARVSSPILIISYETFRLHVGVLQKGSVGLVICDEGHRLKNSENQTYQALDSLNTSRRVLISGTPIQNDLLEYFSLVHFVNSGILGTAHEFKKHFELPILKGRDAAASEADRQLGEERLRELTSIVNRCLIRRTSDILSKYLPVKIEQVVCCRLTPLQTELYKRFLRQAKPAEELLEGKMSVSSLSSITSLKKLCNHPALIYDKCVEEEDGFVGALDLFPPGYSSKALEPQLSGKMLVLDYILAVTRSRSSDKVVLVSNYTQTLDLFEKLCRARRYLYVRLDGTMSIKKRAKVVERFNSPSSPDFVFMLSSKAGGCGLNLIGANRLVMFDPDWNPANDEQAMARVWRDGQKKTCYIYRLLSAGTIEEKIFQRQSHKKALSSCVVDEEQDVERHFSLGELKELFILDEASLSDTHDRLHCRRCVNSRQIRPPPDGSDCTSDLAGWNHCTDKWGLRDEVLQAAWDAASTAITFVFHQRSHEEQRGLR
Briefly: RAD54 Holliday junction migration blockers – biochemical, fluorescence, cherry-picked samples, dose series, confirmation (AID 651657). Format: functional.

Series [9] in a line: Trypanosoma cruzi growth suppression in host cells – NIH3T3 host cells, beta-gal luminescence, confirmation (AID 2044).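 Also: intracellular parasites grown in NIH/3T3 mouse fibroblasts as host cells; luminescent beta-galactosidase reporter signal from transgenic T. cruzi replicating inside host cells; inhibitors lower the luminescence signal.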 Format: functional, cell-based.
Series [10] addresses T5, Ubiquitin-conjugating enzyme E2 N. It is filed as functional. This is another data set of the same source.
Series [11] addresses T7, Short transient receptor potential channel 4 (Mus musculus, UniProt Q9QUQ5).
T7 sequence (Q9QUQ5 whole entry): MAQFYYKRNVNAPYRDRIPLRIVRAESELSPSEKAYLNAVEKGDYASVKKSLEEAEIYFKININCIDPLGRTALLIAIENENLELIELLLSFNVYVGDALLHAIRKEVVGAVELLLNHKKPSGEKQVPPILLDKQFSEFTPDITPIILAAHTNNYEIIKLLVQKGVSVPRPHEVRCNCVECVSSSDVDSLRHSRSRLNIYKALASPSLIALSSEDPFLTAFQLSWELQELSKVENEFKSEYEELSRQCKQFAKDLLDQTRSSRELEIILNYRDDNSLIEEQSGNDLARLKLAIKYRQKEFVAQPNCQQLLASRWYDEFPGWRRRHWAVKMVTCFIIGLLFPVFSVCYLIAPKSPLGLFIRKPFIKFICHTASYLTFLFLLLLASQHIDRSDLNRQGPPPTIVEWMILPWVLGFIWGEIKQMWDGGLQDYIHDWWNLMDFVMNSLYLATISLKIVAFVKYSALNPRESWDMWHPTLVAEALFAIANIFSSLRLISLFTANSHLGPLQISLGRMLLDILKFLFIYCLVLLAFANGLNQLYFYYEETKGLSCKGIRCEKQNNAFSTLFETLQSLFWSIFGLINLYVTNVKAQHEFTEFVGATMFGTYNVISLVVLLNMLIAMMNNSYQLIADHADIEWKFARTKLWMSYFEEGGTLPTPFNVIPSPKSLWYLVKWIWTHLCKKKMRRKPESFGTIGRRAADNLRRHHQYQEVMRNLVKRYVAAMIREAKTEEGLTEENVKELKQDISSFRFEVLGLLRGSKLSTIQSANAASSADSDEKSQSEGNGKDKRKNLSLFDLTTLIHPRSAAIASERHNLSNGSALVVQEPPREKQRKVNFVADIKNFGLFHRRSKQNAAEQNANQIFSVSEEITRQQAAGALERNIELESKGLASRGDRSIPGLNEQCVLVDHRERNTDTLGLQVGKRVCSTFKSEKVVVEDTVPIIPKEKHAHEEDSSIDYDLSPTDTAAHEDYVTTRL
In words: calcium entry via TRPC4 opening agents – cell-based, HEK293 TRPC4/mu-opioid, Fluo-4 calcium, dose response (AID 434937). Format: functional.

Series [12] relates to HEK293. In words: cells. The note with it: Homo sapiens.
The subject of series [13] is HEK293. Briefly: cells. The settings on record: Homo sapiens. The source holds these as a separate data set.
Series [14] addresses T1, Cytochrome P450 2D6. The source holds these as a separate data set.
Series [15] in a line: HIV-1 AD8 envelope cell-cell fusion blockers – cherry-pick, dose response (AID 652062).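 Also: luciferase signal from cell-cell fusion driven by HIV-1 clade B AD8 Env; potency is for inhibitors of fusion seen as a drop in luminescence.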 It is filed as functional, cell-based.
Series [16] is described as follows: blockers of HIV-1 envelope-mediated cell-cell fusion – cherry-pick, dose response (AID 652057). Format: functional, cell-based.
Series [17] is described as follows: blockers of HIV-1 ZM109 envelope-driven cell-cell fusion – HeLa effector, CEM target cells, luciferase, cherry-pick, dose response (AID 652058).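 Also: luciferase signal from HIV-1 Env mediated cell-cell fusion of effector and target cells.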 Format: functional, cell-based.
Series [18] is described as follows: off-target signal loss in HeLa-CEM21 co-culture – HeLa F-luc CTL cells, cherry-picked, counter-screen for HIV-1 Env fusion inhibitor project, dose response (AID 652040).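 Also: potency for signal decrease marking cytotoxic or nonspecific inhibition.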 It is filed as functional, cell-based.

Calls of active or inactive are those of the source.

Chain of Cytochrome P450 3A4 (P08684 whole entry): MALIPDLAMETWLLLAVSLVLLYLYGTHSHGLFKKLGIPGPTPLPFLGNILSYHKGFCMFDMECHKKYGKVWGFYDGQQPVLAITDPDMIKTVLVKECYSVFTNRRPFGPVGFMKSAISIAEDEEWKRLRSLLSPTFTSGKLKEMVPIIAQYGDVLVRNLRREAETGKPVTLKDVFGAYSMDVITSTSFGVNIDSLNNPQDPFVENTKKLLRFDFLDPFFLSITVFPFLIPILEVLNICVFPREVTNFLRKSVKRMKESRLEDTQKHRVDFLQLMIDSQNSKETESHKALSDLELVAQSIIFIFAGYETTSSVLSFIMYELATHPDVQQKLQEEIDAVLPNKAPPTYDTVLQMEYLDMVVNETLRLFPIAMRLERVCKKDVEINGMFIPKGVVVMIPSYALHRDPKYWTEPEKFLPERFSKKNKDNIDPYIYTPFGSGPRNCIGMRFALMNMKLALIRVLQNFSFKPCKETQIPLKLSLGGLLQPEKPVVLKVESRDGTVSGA
Chain of Cytochrome P450 2C9 (P11712 whole entry): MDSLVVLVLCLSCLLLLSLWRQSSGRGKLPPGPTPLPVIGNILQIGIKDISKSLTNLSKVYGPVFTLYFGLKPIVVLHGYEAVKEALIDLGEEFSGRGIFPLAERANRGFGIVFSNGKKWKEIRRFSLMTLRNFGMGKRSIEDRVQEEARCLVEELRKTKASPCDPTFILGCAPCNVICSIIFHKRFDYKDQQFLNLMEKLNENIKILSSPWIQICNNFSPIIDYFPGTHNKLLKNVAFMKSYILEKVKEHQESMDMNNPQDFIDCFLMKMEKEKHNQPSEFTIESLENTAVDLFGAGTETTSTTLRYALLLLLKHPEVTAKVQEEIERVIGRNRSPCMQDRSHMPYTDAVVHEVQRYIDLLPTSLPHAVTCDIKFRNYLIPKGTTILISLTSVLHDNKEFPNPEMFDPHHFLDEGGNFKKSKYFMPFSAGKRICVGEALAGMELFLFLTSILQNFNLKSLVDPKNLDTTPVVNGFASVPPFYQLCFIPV
Chain of Mu-type opioid receptor (P35372 whole entry): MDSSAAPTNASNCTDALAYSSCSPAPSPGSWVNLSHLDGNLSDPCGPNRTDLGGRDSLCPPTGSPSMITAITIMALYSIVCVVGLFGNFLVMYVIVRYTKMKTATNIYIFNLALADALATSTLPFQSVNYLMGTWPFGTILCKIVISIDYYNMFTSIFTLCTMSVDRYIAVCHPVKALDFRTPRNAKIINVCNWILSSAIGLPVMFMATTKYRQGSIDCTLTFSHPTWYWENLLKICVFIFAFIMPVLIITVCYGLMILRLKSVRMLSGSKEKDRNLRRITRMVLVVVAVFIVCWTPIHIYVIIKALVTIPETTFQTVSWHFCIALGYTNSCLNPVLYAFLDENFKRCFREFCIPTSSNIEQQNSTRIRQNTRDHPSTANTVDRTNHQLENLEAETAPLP
Chain of 5-hydroxytryptamine receptor 5A (P47898 whole entry): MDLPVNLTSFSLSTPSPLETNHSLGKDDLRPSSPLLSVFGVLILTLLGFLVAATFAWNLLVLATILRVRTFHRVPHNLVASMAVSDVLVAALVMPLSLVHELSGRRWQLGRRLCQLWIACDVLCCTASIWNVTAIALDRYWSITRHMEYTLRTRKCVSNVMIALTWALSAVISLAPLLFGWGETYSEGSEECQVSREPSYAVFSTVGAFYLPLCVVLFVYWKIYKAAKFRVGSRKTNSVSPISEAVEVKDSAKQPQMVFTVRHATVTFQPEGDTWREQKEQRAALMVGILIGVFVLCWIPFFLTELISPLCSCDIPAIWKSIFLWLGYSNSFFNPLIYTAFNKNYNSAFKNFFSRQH
Chain of Cytochrome P450 2C19 (P33261 whole entry): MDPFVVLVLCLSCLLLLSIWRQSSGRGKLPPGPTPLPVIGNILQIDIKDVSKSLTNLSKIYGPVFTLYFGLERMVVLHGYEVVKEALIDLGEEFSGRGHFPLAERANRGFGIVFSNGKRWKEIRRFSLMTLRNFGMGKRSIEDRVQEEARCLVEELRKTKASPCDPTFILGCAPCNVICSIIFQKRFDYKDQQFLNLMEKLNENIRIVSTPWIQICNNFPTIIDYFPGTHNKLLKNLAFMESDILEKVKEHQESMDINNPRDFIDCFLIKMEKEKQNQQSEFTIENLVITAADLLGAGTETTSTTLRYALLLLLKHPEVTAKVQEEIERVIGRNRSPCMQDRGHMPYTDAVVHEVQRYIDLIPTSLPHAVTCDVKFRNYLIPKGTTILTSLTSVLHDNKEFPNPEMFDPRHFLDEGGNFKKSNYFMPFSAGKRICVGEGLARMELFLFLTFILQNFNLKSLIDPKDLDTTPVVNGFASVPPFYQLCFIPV
Chain of Delta-type opioid receptor (P41143 whole entry): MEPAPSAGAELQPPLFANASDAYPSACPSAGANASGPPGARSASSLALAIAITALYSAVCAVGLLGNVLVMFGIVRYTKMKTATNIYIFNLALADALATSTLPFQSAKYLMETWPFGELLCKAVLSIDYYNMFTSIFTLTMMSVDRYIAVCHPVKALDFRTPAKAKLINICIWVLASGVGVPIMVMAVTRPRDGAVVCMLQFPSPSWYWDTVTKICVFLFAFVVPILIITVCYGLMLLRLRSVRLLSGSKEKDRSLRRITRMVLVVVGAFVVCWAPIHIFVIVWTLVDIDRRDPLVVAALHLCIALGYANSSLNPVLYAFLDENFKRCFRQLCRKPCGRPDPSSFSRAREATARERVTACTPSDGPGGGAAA
T1 sequence (P10635 whole entry): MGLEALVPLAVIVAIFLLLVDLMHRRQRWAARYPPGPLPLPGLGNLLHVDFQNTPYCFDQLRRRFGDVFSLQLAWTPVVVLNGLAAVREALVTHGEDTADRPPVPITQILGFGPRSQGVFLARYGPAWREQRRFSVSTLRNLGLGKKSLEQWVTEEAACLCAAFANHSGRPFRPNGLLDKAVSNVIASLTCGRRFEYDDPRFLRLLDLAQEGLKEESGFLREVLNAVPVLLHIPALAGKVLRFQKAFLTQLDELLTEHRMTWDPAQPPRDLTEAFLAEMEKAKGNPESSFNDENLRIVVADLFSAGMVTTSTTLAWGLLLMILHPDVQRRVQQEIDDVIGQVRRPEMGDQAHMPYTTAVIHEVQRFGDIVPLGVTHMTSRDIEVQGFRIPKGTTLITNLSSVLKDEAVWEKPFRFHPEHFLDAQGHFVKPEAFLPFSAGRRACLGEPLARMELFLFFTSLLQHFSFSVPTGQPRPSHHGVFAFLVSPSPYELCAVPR
Chain of Beta-galactosidase (Q8VNN2 whole entry): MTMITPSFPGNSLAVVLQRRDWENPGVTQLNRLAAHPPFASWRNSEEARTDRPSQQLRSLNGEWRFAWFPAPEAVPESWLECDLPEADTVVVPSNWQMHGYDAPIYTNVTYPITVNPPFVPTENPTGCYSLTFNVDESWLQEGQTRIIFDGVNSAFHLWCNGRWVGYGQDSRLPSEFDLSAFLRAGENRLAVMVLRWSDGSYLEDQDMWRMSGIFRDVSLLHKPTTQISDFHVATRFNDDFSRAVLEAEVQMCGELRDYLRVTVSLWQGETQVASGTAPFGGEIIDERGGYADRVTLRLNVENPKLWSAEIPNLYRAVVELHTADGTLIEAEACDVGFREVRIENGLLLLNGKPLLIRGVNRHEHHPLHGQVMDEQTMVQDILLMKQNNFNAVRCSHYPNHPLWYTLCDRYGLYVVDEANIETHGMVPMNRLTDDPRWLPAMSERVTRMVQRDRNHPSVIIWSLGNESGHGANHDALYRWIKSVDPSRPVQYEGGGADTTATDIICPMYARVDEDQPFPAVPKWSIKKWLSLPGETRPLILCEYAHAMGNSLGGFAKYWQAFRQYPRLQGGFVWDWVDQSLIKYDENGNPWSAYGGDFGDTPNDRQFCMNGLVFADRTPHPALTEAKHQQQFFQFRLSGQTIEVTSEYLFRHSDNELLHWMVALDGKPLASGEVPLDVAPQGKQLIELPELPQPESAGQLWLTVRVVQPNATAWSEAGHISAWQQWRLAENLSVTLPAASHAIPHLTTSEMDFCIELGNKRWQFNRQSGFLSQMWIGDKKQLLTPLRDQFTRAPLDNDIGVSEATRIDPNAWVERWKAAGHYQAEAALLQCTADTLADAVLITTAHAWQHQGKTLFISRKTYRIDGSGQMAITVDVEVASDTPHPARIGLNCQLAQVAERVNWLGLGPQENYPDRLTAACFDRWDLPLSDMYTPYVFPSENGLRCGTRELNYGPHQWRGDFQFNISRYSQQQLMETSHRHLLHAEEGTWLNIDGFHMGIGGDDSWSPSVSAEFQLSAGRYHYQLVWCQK

With `NC(=O)c1ccccc1NC(=O)/C=C/c1cccc(Cl)c1`, the AC50 (as a rule, the concentration at which the activity in the assay is half-maximal) at Cytochrome P450 2C9 is listed as “inconclusive”.

In the case of `NCC(O)CN.Oc1c(Cl)c(Cl)c(Cl)c(Cl)c1Cl`, the AC50 result on Cytochrome P450 2D6 [1], at Cytochrome P450 3A4 and on Cytochrome P450 2C19 was “inactive” in each case.

Regarding `CC(=O)Nc1cccc(C(=O)OCC(=O)c2ccc(S(=O)(=O)N3CCCCC3)cc2)c1`, the EC50 (in general, the concentration that produces a half-maximal response) on Beta-galactosidase was > 40 µM (inactive). Moreover, in series [2], the concentration for half-maximal inhibition (IC50) (usually the concentration that gives 50% inhibition) was 18 µM (active).

With `COc1ccc(-n2cc(CNCc3cccnc3)c(-c3cccc(F)c3)n2)cc1`, the EC50 was 70.5 µM (inactive) on Mu-type opioid receptor, > 92.5 µM (inactive) in series [3], > 92.5 µM (inactive) in [4] and > 260 µM (inactive) in series [5].

Consider `COc1cc2nc(NCCCN3CCN(C)CC3)n3nc(-c4ccccc4)nc3c2cc1OC`, for which the values for the IC50 (at Bcl-2-related protein A1; in series [7]; in [10]) were > 20 µM (inactive), 17.6 µM (active) and 6.25 µM (active), respectively. In addition, the EC50 in series [6] is > 60 µM (not active); in [9], 1.87 µM (active). Further, the AC50 in series [8] was 2.98 µM (active).

`Cn1c(CN2CCN(c3cccc(Cl)c3)CC2)nc2ccccc21`: the EC50 at Mu-type opioid receptor was 15.7 µM (inactive); in [11] it was 2.11 µM (active); in [3] it was > 92.5 µM (inactive); in series [4] it was > 92.5 µM (inactive).

In the case of `CN(C)S(=O)(=O)n1cc(/C=C(\NC(=O)c2ccccc2Cl)C(=O)N2CCCC2)c2ccccc21`, the EC50 with HEK293 [12] and with HEK293 [13] was > 59.6 µM (inactive) in each case.

Consider `Cc1ccccc1-c1cc(Nc2ccccc2)ncn1`, for which the values for the AC50 entry on Cytochrome P450 3A4 and at Cytochrome P450 2D6 [14] were “inconclusive” and 39.8 µM (inconclusive), respectively.

Turning to `CCOC(=O)c1cc(-c2ccc(OC)cc2)nc2c1c(C)nn2CCC#N`, the IC50 was > 20 µM (inactive) on Bcl-2-related protein A1, 15 µM (active) in series [7] and 6.8 µM (active) in [10].

As to `N=c1ccn2c(n1)O[C@@H]1[C@@H](O)[C@H](CO)O[C@H]12`, the figures for the AC50 result at Cytochrome P450 2C9, at Cytochrome P450 3A4 and on Cytochrome P450 2C19 (read-out: AC50) were “inconclusive”, “inconclusive” and 0.0316 µM (inconclusive), respectively.

As to `CC1CCC(NC(=O)CCn2ccc3cc(S(=O)(=O)N4CCCC4)ccc32)CC1` (stereo unspecified), the half-maximal activity concentration (AC50) is 4.28 µM (active) in series [15], 3.53 µM (active) in [16], 0.999 µM (active) in [17] and 5.19 µM (active) in series [18]. Also, the EC50 with HEK293 [12] and in the series with HEK293 [13] was > 59.6 µM (inactive) each time.
